The results in this text go back to US9242970B2 (ACTELION PHARMACEUTICALS LTD., priority 2010, dated 2016).

In general, IC50 refers to the concentration at which inhibition is half-maximal.

For one assay, the target named is human orexin-1 receptor (Homo sapiens (Human), UniProt O43613). Briefly: In vitro assay: intracellular calcium measurements (FLIPR), antagonistic activity. The class given is cell-based. Particulars: CHO cells, 3 nM orexin-A, compound incubation time of 10 min; marked values are geometric means of n = 2-6; read-out: IC50 OX1.
human orexin-1 receptor, sequence (O43613 whole entry): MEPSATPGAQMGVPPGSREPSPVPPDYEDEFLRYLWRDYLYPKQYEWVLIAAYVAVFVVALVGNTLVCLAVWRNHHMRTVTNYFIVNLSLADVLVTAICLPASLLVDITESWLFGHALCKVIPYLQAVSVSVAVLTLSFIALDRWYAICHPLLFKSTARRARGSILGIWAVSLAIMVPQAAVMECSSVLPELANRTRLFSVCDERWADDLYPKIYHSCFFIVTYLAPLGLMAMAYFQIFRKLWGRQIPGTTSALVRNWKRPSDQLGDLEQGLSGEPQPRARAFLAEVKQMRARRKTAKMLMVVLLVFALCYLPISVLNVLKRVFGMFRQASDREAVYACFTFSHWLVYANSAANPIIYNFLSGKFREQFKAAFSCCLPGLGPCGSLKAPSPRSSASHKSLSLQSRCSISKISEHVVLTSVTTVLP
For another assay, the target named is human orexin-2 receptor (Homo sapiens (Human), UniProt O43614). Described as above. Particulars: CHO cells, 3 nM orexin-A, compound incubation time of 10 min; marked values are geometric means of n = 2-6; read-out: IC50 OX2. The class given is cell-based.
human orexin-2 receptor, sequence (O43614 whole entry): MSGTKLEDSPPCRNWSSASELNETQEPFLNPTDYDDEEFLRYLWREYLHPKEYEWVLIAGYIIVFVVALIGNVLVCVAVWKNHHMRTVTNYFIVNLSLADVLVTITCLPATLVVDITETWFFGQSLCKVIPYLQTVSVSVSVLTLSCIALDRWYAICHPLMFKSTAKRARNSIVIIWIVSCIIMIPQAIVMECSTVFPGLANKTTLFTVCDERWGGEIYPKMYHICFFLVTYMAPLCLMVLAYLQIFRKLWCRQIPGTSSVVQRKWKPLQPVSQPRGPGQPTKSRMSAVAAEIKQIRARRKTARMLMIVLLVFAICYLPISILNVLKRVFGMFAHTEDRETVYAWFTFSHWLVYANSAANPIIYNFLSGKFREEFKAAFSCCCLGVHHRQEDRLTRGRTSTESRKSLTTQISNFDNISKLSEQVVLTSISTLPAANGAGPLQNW

Each structure is given as a SMILES string.

Consider `COc1ccc(CN2C(=O)CCCC2c2c(OC)cccc2OC)cc1` (stereo not shown) [Example 159, 6-(2,6-dimethoxyphenyl)-1-(4-methoxybenzyl)piperidin-2-one], for which the IC50 was 684 nM on human orexin-1 receptor and 397 nM at human orexin-2 receptor.
With `COc1cccc(OC)c1C1CCCC(=O)N1Cc1ccc(OC(F)(F)F)c(F)c1` (stereo not shown) [Example 160, 6-(2,6-dimethoxyphenyl)-1-(3-fluoro-4-(trifluoromethoxy)benzyl)piperidin-2-one], the IC50 on human orexin-1 receptor came out at 238 nM; on human orexin-2 receptor, 18 nM.
Turning to `COc1cccc(OC)c1C1CCCC(=O)N1Cc1ccc(OC(F)(F)F)c(Cl)c1` (stereo not shown) [Example 161, 1-(3-chloro-4-(trifluoromethoxy)benzyl)-6-(2,6-dimethoxyphenyl)piperidin-2-one], the IC50 turned out to be 147 nM on human orexin-1 receptor and 62 nM at human orexin-2 receptor.
The like results for `COc1cccc(OC)c1C1CCCC(=O)N1Cc1ccc(SC(F)(F)F)cc1` (stereo not shown) [Example 162, 6-(2,6-dimethoxyphenyl)-1-(4-((trifluoromethyl)thio)benzyl)piperidin-2-one] were, in that order, 1310 nM and 62 nM.
The like results for `COc1cccc(OC)c1C1CCCC(=O)N1Cc1ccc(C(F)(F)F)cc1` (stereo not shown) [Example 163, 6-(2,6-dimethoxyphenyl)-1-(4-(trifluoromethyl)benzyl)piperidin-2-one] were, in that order, 1190 nM and 171 nM.
The like results for `COc1cccc(OC)c1C1CCCC(=O)N1Cc1ccc(Oc2ccccc2)cc1` (stereo not shown) [Example 164, 6-(2,6-dimethoxyphenyl)-1-(4-phenoxybenzyl)piperidin-2-one] were, in that order, 409 nM and 27 nM.
`COc1cccc(OC)c1C1CCCC(=O)N1Cc1ccc(OC(F)F)cc1` (stereo not shown) [Example 165, 1-(4-(difluoromethoxy)benzyl)-6-(2,6-dimethoxyphenyl)piperidin-2-one]: the IC50 at human orexin-1 receptor was 224 nM; on human orexin-2 receptor it was 31 nM.
On to `COc1cccc(OC)c1C1CCCC(=O)N1Cc1ccc2c(c1)OCO2` (stereo not shown) [Example 166, 1-(benzo[d][1,3]dioxol-5-ylmethyl)-6-(2,6-dimethoxyphenyl)piperidin-2-one], for which the results for the IC50 on human orexin-1 receptor and at human orexin-2 receptor were 1720 nM and 549 nM, respectively.
In the case of `COc1cc(Cl)cc(OC)c1C1CCCC(=O)N1Cc1ccc(OC(F)(F)F)cc1` (stereo not shown) [Example 167, 6-(4-chloro-2,6-dimethoxyphenyl)-1-(4-(trifluoromethoxy)benzyl)piperidin-2-one], the IC50 on human orexin-1 receptor was determined as 231 nM; at human orexin-2 receptor it was 28 nM.
The like results for `COc1cccc(OC)c1C1CCCC(=O)N1Cc1ccc(-n2cccn2)cc1` (stereo not shown) [Example 168, 1-(4-(1H-pyrazol-1-yl)benzyl)-6-(2,6-dimethoxyphenyl)piperidin-2-one] were, in that order, 1820 nM and 453 nM.
The like results for `COc1cccc(OC)c1C1CCCC(=O)N1Cc1ccc(-n2cccc2)cc1` (stereo not shown) [Example 169, 1-(4-(1H-pyrrol-1-yl)benzyl)-6-(2,6-dimethoxyphenyl)piperidin-2-one] were, in that order, 1590 nM and 190 nM.
Take `COc1cccc(OC)c1C1CCCC(=O)N1Cc1ccc2nonc2c1` (stereo not shown) [Example 170, 1-(benzo[c][1,2,5]oxadiazol-5-ylmethyl)-6-(2,6-dimethoxyphenyl)piperidin-2-one]: the half-inhibitory concentration (IC50) is 2390 nM on human orexin-1 receptor and 766 nM at human orexin-2 receptor.
For `COc1ccc2cc(CN3C(=O)CCCC3c3c(OC)cccc3OC)ccc2c1` (stereo not shown) [Example 171, 6-(2,6-dimethoxyphenyl)-1-((6-methoxynaphthalen-2-yl)methyl)piperidin-2-one] the same measures were 122 nM and 66 nM.
The like results for `COc1cc(OC)c(C2CCCC(=O)N2Cc2ccc(OC(F)(F)F)cc2)c(OC)c1` (stereo not shown) [Example 172, 1-(4-(trifluoromethoxy)benzyl)-6-(2,4,6-trimethoxyphenyl)piperidin-2-one] were, in that order, 330 nM and 106 nM.
The like results for `COc1cccc(OC)c1C1CC(C)CC(=O)N1Cc1ccc(OC(F)(F)F)cc1` (stereo not shown) [Example 173, 6-(2,6-dimethoxyphenyl)-4-methyl-1-(4-(trifluoromethoxy)benzyl)piperidin-2-one] were, in that order, 537 nM and 297 nM.
With `COc1cccc(OC)c1C1CC(C)(C)CC(=O)N1Cc1ccc(OC(F)(F)F)cc1` (stereo not shown) [Example 174, 6-(2,6-dimethoxyphenyl)-4,4-dimethyl-1-(4(trifluoromethoxy)benzyl)piperidin-2-one], the IC50 on human orexin-1 receptor is 1800 nM; on human orexin-2 receptor, 1080 nM.
The like results for `COc1cccc(OC)c1C1CCCC(=O)N1Cc1cccc(OC(F)(F)F)c1` (stereo not shown) [Example 175, 6-(2,6-dimethoxyphenyl)-1-(3-(trifluoromethoxy)benzyl)piperidin-2-one] were, in that order, 136 nM and 94 nM.
For `COc1cccc(OC)c1C1CCCC(=O)N1Cc1ccc(OCCF)cc1` (stereo not shown) [Example 176, 6-(2,6-dimethoxyphenyl)-1-(4-(2-fluoroethoxy)benzyl)piperidin-2-one], the figures for the IC50 at human orexin-1 receptor and on human orexin-2 receptor were 327 nM and 61 nM, respectively.
For `COc1cccc(OC)c1C1CCCC(=O)N1Cc1ccc(OC(F)F)nc1` (stereo not shown) [Example 177, 1-((6-(difluoromethoxy)pyridin-3-yl)methyl)-6-(2,6-dimethoxyphenyl)piperidin-2-one] the same measures were 354 nM and 92 nM.
The like results for `COc1cccc(OC)c1C1CCCC(=O)N1Cc1cccc(OC(F)F)c1` (stereo not shown) [Example 178, 1-(3-(difluoromethoxy)benzyl)-6-(2,6-dimethoxyphenyl)piperidin-2-one] were, in that order, 215 nM and 78 nM.
For `COc1cccc(OC)c1C1CCCC(=O)N1Cc1cccc(Oc2ccccc2)c1` (stereo not shown) [Example 179, 6-(2,6-dimethoxyphenyl)-1-(3-phenoxybenzyl)piperidin-2-one] the same measures were 225 nM and 42 nM.
As to `COc1cccc(OC)c1C1CCCC(=O)N1Cc1cc2ccccc2o1` (stereo not shown) [Example 180, 1-(benzofuran-2-ylmethyl)-6-(2,6-dimethoxyphenyl)piperidin-2-one], the figures for the IC50 at human orexin-1 receptor and at human orexin-2 receptor were 1450 nM and 170 nM, respectively.
The like results for `COc1cccc(OC)c1C1CCCC(=O)N1Cc1cc2ccccc2s1` (stereo not shown) [Example 181, 1-(benzo[b]thiophen-2-ylmethyl)-6-(2,6-dimethoxyphenyl)piperidin-2-one] were, in that order, 805 nM and 252 nM.
For `COc1cccc(OC)c1C1CCCC(=O)N1Cc1ccc2c(c1)OC(F)(F)O2` (stereo not shown) [Example 182, 1-((2,2-difluorobenzo[d][1,3]dioxol-5-yl)methyl)-6-(2,6-dimethoxyphenyl)piperidin-2-one] the same measures were 283 nM and 178 nM.
Regarding `COc1cccc(OC)c1C1CCCC(=O)N1Cc1cccc(OC(F)F)n1` (stereo not shown) [Example 183, 1-((6-(difluoromethoxy)pyridin-2-yl)methyl)-6-(2,6-dimethoxyphenyl)piperidin-2-one], the figures for the IC50 at human orexin-1 receptor and at human orexin-2 receptor were 644 nM and 64 nM, respectively.
Consider `COc1cccc(OC)c1C1CCCC(=O)N1C(C)c1cnc(OC(F)F)c(Cl)c1` (stereo not shown) [Example 185, 1-(1-(5-chloro-6-(difluoromethoxy)pyridin-3-yl)ethyl)-6-(2,6-dimethoxyphenyl)piperidin-2-one], for which the IC50 at human orexin-1 receptor was determined as 323 nM; on human orexin-2 receptor, 34 nM.
